Data on one compound can be found in patent publication US20170306409A1, “CANCER PATIENT SELECTION FOR ADMINISTRATION OF WNT SIGNALING INHIBITORS USING RNF43 MUTATION STATUS” (NOVARTIS AG, priority 2012, published 2017).

What all share (assay type): cell-based, human
Experiment [1] concerns AXIN2, pancreatic cancer cell lines. The experiment in a line: AXIN2 expression across pancreatic cancer cell line panel. As to conditions: 22 of 29 cell lines. As for the experimental part:
(§1) For reverse transcription and quantitative PCR (qPCR), total RNA was extracted from cells or tumors using the RNeasy Plus Mini Kit (Qiagen). 1 μg of RNA were reverse transcribed with Taqman Reverse Transcription Reagents (Applied Biosystems) according to the manufacturer's instruction. Quantitative PCR was performed in 12 μl reactions consisting of 0.6 μl of 20× Taqman probe and PCR primer mix, 6 μl 2× Taqman FAST Advanced Master Mix (Applied Biosystems), and 5.4 μl diluted cDNA template. The thermocycling conditions utilized were 20 seconds at 95° C., followed by 40 cycles of 1 second at 95° C. and 20 seconds at 60° C. All experiments were performed in quadruplicates. Gene expression analysis was performed using the comparative ΔΔCT method and normalized with the housekeeping gene GUSB or 18S. The Taqman probes were purchased from Applied Biosystems.

For the next experiment, the system named is PaTu-8988S. The experiment in a line: soft agar assay. The conditions noted are these: 1 μM LGK974. As for the experimental part: (§2) Further, LGK974 induced the expression of differentiation marker MUC2, MUC5A/C in RNF43 mutant cells. LGK974 blocked EDU incorporation in RNF43 mutant cell lines, so Wnt inhibition in these cells leads to cell cycle arrest. LGK974-induced growth inhibition and cellular differentiation of RNF43 mutant cells are also obvious using Ki67 staining (anti-Ki67 (SP6) from Vector Laboratories, Burlingame, Calif., USA 94010) and Alcian Blue staining.
(§3) For soft agar assay, cells were suspended in 250 μl of 0.3% low melting agarose (Lonza) in DMEM containing 10% FBS, and plated onto 250 μl of solidified 0.8% agarose containing DMEM in 48-well culture plates at a density of 5,000-10,000 cells per well. 250 μl of growth medium were added on top of the cells after plate was cooled at Rt for 30 minutes. The plate was then incubated at 37° C. in a humidified atmosphere containing 5% CO2. The cells were treated with fresh growth medium containing DMSO or 1 μM LGK974 every 3-4 days. When colonies reached desirable size, photographs were taken and colonies were stained with AlamarBlue (from Invitrogen, Life Technologies, Grand Island, N.Y., USA 14072) according to the manufacturer's instruction. These experiments were repeated three times, and at least four wells were replicated each time for each condition.

In a further experiment the test system is PK1. The experiment in a line: soft agar assay. The conditions noted are these: 1 μM LGK974. As for the experimental part: as §2, §3
The subject of a further experiment is HPAFII. The experiment in a line: soft agar assay. As to conditions: 1 μM LGK974. As for the experimental part:
as §2, §3

The test system of the next experiment is RNF43 mRNA, YAPC cells. The experiment can be described thus: quantitative RT-PCR gene expression analysis. The conditions noted are these: 1 μM of LGK974. As for the experimental part: FIG. 4(a) is a bar graph showing that the depletion of β-catenin decreases mRNA level of AXIN2 and RNF43. Cells were treated with siRNA, and relative mRNA levels of indicated genes were analyzed by quantitative RT-PCR. […] YAPC cells were treated with 3 μM of IWP2 or 1 μM of LGK974, and subjected to gene expression analysis by quantitative RT-PCR.
as §1
Consistent with this observation, treatment of Porcupine inhibitor IWP2 or LGK974 increased the cell surface level of Frizzled and decreased the mRNA levels of AXIN2 and RNF43. See, FIG. 4(b). […]

The next experiment concerns RNF43 mutant cells. The experiment in a line: foci formation assay with recombinant Wnt3a. The conditions noted are these: 1 μM of LGK974 together with recombinant Wnt3a. An excerpt:
(§4) We next characterized Wnt-dependency in pancreatic cancer cell lines.

In the next experiment the test system is Panc03.27. The experiment can be described thus: foci formation assay. The conditions noted are these: 1 μM LGK974. As for the experimental part:
(§5) To assay foci formation, 6,000˜12,000 cells of indicated cell lines were seeded in 6 well tissue culture plate in 2 ml growth media. After overnight culture for cell attachment, media was replaced with fresh growth media containing 1 μM LGK974 in the absence and presence of recombinant Wnt3a. For DOX-inducible β-catenin shRNA experiment, cells were treated 5 ng/ml doxycycline. When cell colonies reached desirable size, cells were fixed with 4% formalin in PBS and stained with crystal violet solution. After a few washes, plates were dried and imaged.
(§6) Identification of pancreatic cancer lines containing inactivation mutation of RNF43. Discovery of LGK974, a potent and selective inhibitor of Porcupine, offered us a unique chemical tool to systemically examine Wnt dependency in a large panel of cancer cell lines. We tested LGK974 in a large panel of pancreatic cancer cell lines using foci formation assay. Foci formation assay was utilized because it is more sensitive than routine growth assays such as CellTiter-Glo, and it is less affected by the different growth rates of various cell lines.

Another experiment has as its system T3M4. The experiment can be described thus: foci formation assay. The conditions noted are these: 1 μM LGK974. As for the experimental part: as §5, §6
The next experiment has as its system KLM1. The experiment in a line: foci formation assay. As to conditions: 1 μM LGK974. As for the experimental part: as §5, §6
A further experiment relates to KCl-MOH1. The experiment can be described thus: foci formation assay. As to conditions: 1 μM LGK974. As for the experimental part:
as §5, §6

The test system of the next experiment is HuPT4. The experiment in a line: foci formation assay. As to conditions: 1 μM LGK974. As for the experimental part: as §5, §6
A further experiment relates to DanG. The experiment in a line: foci formation assay. The conditions noted are these: 1 μM LGK974. As for the experimental part:
as §5, §6

For the next experiment, the system named is TCC-PAN2. The experiment can be described thus: pathway inhibition by LGK974 (Table 4).
Another experiment concerns RNF43 mutant cell lines. The experiment in a line: immunoblot and qPCR assays. As for the experimental part: as §1, §4
(§7) For immunoblotting, total cell lysates were prepared by lysing cells using RIPA buffer (50 mM Tris-HCl, pH 7.4, 150 mM NaCl, 1% NP-40, 0.5% sodium deoxycholate, 0.1% SDS, 1 mM EDTA) supplemented with protease inhibitors and phosphatase inhibitors, followed by centrifugation at 14,000 rpm for 10 min at 4° C. For cytosolic β-catenin extraction, cell pellets were resuspended in hypotonic buffer (10 mM Tris-HCl, pH 7.5 and 10 mM KCl, supplemented with protease/phosphatase inhibitors) and lysed by three freeze-thaw cycles. Equal amount of proteins were resolved by SDS-PAGE, transferred to nitrocellulose membranes, and incubated with primary antibodies for overnight at 4° C. Secondary antibodies conjugated with either HRP or infrared dyes were used for signal visualization by ECL film or LI-COR Odyssey scanner, respectively.
Background: In western blotting, separated proteins are transferred to a membrane and probed.

Experiment [2] relates to RNF43 wild-type cell lines. The experiment can be described thus: immunoblot and qPCR assays. As for the experimental part: as §1, §4, §7

SMILES strings stand for the structures.

On to `Cc1cc(-c2ncc(CC(=O)Nc3ccc(-c4cnccn4)cn3)cc2C)ccn1` [LGK974, 2-[5-methyl-6-(2-methylpyridin-4-yl)pyridin-3-yl]-N-[5-(pyrazin-2-yl)pyridin-2-yl]acetamide], for which the “share of pancreatic cancer cell lines with decreased expression of AXIN2” value in experiment [1] stood at 76%. Besides, the entries for the “proliferation in soft agar assay” value in the experiment on PaTu-8988S, in the experiment with PK1 and in the experiment on HPAFII were “strongly inhibited”, “not” and “strongly inhibited”, respectively. Besides, in the experiment with RNF43 mRNA, YAPC cells, the “mRNA level of RNF43” value is on record as “decreased”. Besides, the “growth inhibitory effect with exogenous Wnt3a” value with RNF43 mutant cells is “rescued”. Besides, the “Growth inhibition in foci formation assay” value with Panc03.27, in the experiment with T3M4, in the experiment with KLM1, in the experiment on KCl-MOH1, in the experiment with HuPT4 and in the experiment with DanG was “No” in each case. In addition, the Pathway inhibition result in the experiment with TCC-PAN2 is “Yes”. Also, the “cytosolic β-catenin” value (in the experiment with RNF43 mutant cell lines (RNF43 mutant cell lines); in experiment [2]) was “decreased” in each case. Besides, the “expression of MYC” value is reported as “decreased” in the experiment on RNF43 mutant cell lines (RNF43 mutant cell lines) and “not” in [2]. For the same compound, the “expression of cyclin dependent kinase inhibitor p21” value with RNF43 mutant cell lines (RNF43 mutant cell lines) is listed as “increased”; in [2], “not”. The “expression of β-catenin target gene AXIN2” value (in the experiment on RNF43 mutant cell lines (RNF43 mutant cell lines); in experiment [2]) was “decreased” throughout. Moreover, the “expression of differentiation marker MUC2, MUC5A/C” value with RNF43 mutant cell lines (RNF43 mutant cells) is listed as “induced”.
